The test system of the assay is TCG codon, mammalian cells. The experiment in a line: TCG codon recoding efficiency of all amino acids (Table 1). In kind it is cell-based. As to conditions: TCG codon recoding of the unnatural amino acid with the aaRS and mutation of the same table line. The source says:
Specific details are shown in Table 1 below, where “wt” represents the wild-type aminoacyl-tRNA synthetase, “mutation sites” indicate the positions and types of mutations related to specific unnatural amino acid binding on the wild-type aminoacyl-tRNA synthetase, and “unnatural amino acid” represents the unnatural amino acid corresponding to the mutated aminoacyl-tRNA synthetase. In the unnatural amino acid encoding efficiency, “+” indicates a recoding efficiency greater than 40%, “++” greater than 60%, and “+++” greater than 80%.
Accordingly, this application compiles all amino acids reported in the literature that are recognized by orthogonal aminoacyl-tRNA synthetases in mammalian systems and evaluates their recoding efficiency using the TCG codon as an example.

Each structure is given as a SMILES string.

On to `CC(OC(=O)CC(N)C(=O)O)c1ccccc1[N+](=O)[O-]` (mixture of isomers) [compound 262], for which the “Recoding rate (%)” value (class symbols) is given as “++ (“++” greater than 60%)”. Same read-out and setting: with `CC(SCC(N)C(=O)O)c1cc2c(cc1[N+](=O)[O-])OCO2` (mixture of isomers) [compound 269] the entry was “+ (“+” indicates a recoding efficiency greater than 40%)”; with `CC(OC(=O)NCSCC(N)C(=O)O)c1cc2c(cc1[N+](=O)[O-])OCO2` (mixture of isomers) [compound 270], “+ (“+” indicates a recoding efficiency greater than 40%)”. Same read-out and setting: with `CC(OC(=O)NCSCCC(N)C(=O)O)c1cc2c(cc1[N+](=O)[O-])OCO2` (mixture of isomers) [compound 271] the entry was “+ (“+” indicates a recoding efficiency greater than 40%)”; with `CC([Se]CC(N)C(=O)O)c1cc2c(cc1[N+](=O)[O-])OCO2` (mixture of isomers) [compound 275], “+ (“+” indicates a recoding efficiency greater than 40%)”; with `CC(SCCOC(=O)NCC(N)C(=O)O)c1cc2c(cc1[N+](=O)[O-])OCO2` (mixture of isomers) [compound 276], “+ (“+” indicates a recoding efficiency greater than 40%)”. For the molecule `N[C@@H](Cc1cccc(F)c1F)C(=O)O` [compound 228], the “Recoding rate (%)” value (numeric values) was 80? %. The same measure, in the same setting: the value for `N[C@@H](Cc1cc(F)c(F)cc1F)C(=O)O` [compound 229] was 83%. Regarding `N[C@@H](Cc1ccc2ncccc2c1)C(=O)O` [compound 230], the “Recoding rate (%)” value (class symbols) is “+ (“+” indicates a recoding efficiency greater than 40%)”. The same measure, in the same setting: the value for `N[C@@H](Cc1ccc(Oc2ccc(O)cc2)cc1)C(=O)O` [compound 231] was “++ (“++” greater than 60%)”. With `N[C@@H](Cc1ccccc1[N+](=O)[O-])C(=O)O` [compound 232], where the note is “numeric values”, the “Recoding rate (%)” value turned out to be 72%.

As to `N[C@@H](Cc1cccc(C(F)(F)F)c1)C(=O)O` [compound 234], the “Recoding rate (%)” value (numeric values) is given as 81%. Regarding `N#Cc1cccc(C[C@H](N)C(=O)O)c1` [compound 235], the “Recoding rate (%)” value (numeric values) was found to be 74%. Consider `N[C@@H](Cc1cccc([N+](=O)[O-])c1)C(=O)O` [compound 237], for which the “Recoding rate (%)” value (numeric values) is 85%. As to `N[C@@H](Cc1ccc(OCC2CCCC2)cc1)C(=O)O` [compound 238], the “Recoding rate (%)” value (class symbols) was “++ (“++” greater than 60%)”. `CC#CCOc1ccc(C[C@H](N)C(=O)O)cc1` [compound 239]: the “Recoding rate (%)” value (class symbols) is given as “++ (“++” greater than 60%)”. As for `N[C@@H](Cc1ccc(OCc2ccccc2)cc1)C(=O)O` [compound 240], the “Recoding rate (%)” value (numeric values) stood at 46%. With `C=CCOc1ccc(C[C@H](N)C(=O)O)cc1` [compound 241], the “Recoding rate (%)” value (numeric values) worked out at 83%. `C=CCCOc1ccc(C[C@H](N)C(=O)O)cc1` [compound 242]: under “class symbols”, the “Recoding rate (%)” value is recorded as “++ (“++” greater than 60%)”. On the same count and under the same terms, the value for `C=CCCCOc1ccc(C[C@H](N)C(=O)O)cc1` [compound 243] was “++ (“++” greater than 60%)”. For `CC(C)(C)Oc1ccc(C[C@H](N)C(=O)O)cc1` [compound 244], the “Recoding rate (%)” value (numeric values) amounted to 72%. Same read-out and setting: the value for `N[C@@H](Cc1cc(Br)ccc1Cl)C(=O)O` [compound 245] was 75%; that for `N[C@@H](Cc1cc(Cl)ccc1Cl)C(=O)O` [compound 246] was 84%. On the same count and under the same terms, with `N[C@@H](Cc1cccnc1)C(=O)O` [compound 247] the figure was 83%. In the case of `N[C@@H](Cc1ccc2c(c1)OCO2)C(=O)O` [compound 248], the “Recoding rate (%)” value (class symbols) was “+ (“+” indicates a recoding efficiency greater than 40%)”. Consider `N[C@@H](Cc1ccc2ccccc2c1)C(=O)O` [compound 249], for which the “Recoding rate (%)” value (class symbols) is reported as “+ (“+” indicates a recoding efficiency greater than 40%)”.

Turning to `N[C@@H](Cc1c[nH]c2c(F)cccc12)C(=O)O` [compound 250], the “Recoding rate (%)” value (numeric values) was 74%. Same read-out and setting: the value for `N[C@@H](Cc1c[nH]c2ncccc12)C(=O)O` [compound 251] was 22%.

(Values after patent US20250327074A1 (SHAOXING INSTITUTE, ZHEJIANG UNIVERSITY, priority 2024, published 2025).)
